Earlier results in patent US20220251564A1, “p16INK4a INHIBITOR FOR PREVENTING OR TREATING HUNTINGTON'S DISEASE” (SORBONNE UNIVERSITE, priority 2019, published 2022).

Tested on: neurons
Conditions: in vitro

COc1cc([C@@H]2c3cc4c(cc3[C@@H](O[C@@H]3O[C@@H]5CO[C@@H](C)O[C@H]5[C@H](O)[C@H]3O)[C@H]3COC(=O)[C@H]23)OCO4)cc(OC)c1O [Etoposide]
activation of neurons: activate neurons in vitro
